The subject of data set [1] is HeLa cervical cancer cells. Description: XTT cell growth assay, HeLa. The class given is cell-based, human. The settings on record: Homo sapiens, HeLa, 24 h, NS = not statistically significant, read-out: Effectiveness to suppress HeLa cell growth (cell growth inhibition). The text has this: (§1) The XTT assay is used to measure cellular metabolic activity as an indicator of cell viability, proliferation and cytotoxicity. This non-radioactive, colorimetric assay system was first described by Scudiero, et al. in 1988 (Paull, Kenneth D. et al., J Heterocycl Chem, 1988, 25: 911-914; Scudiero, Dominic A. et al., Cancer Res, 1988, 48: 4827-4833) and improved in subsequent years by several other investigators (Weislow, Owen S. et al., J Natl Cancer Inst, 1989, 81(8): 577-586; Roehm, N. W. et al., J Immunol Methods, 1991, 142: 257-265).
(§2) The XTT assay is based on the reduction of a yellow tetrazolium salt (sodium 3′-[1-(phenylaminocarbonyl)-3,4-tetrazolium]-bis (4-methoxy6-nitro) benzene sulfonic acid hydrate or XTT) to an orange formazan dye by metabolically active cells (FIG. 8). The formazan dye formed is soluble in aqueous solutions and is directly quantified using a scanning multiwell spectrophotometer (ELISA reader). An increase in number of living cells results in an increase in the overall activity of mitochondrial dehydrogenases in the sample. This increase directly correlates to the amount of orange formazan formed, as monitored by the absorbance. Reduced number of living cells leads to reduced metabolism of quaternary salt and therefore reduced absorption.
(§3) Cell viability was assessed using the XTT assay kit (Roche, Mannheim, Germany) as described previously (Kouka, Paraskevi et al., Oxid Med Cell Longev. 2019, Article ID 1870965). Briefly, cancer cells per well were cultured in a 96-well plate in Dulbecco's modified Eagle's medium (DMEM). Following a 24 h incubation, 5, 10 and 50 μM of the tested GS compound was diluted in a serum-free DMEM and administered for 24 h. Subsequently, 50 μL of the XTT reagent (50:1) was added to each well. After 4 h of incubation, the absorbance was monitored at 450 nm and also at 630 nm as a reference wavelength in a BioTek ELx800 microplate reader (BioTek Instruments Inc., Winooski, VT, USA). As a negative control, samples containing serum-free DMEM only were used.
HeLa is a human immortal cell line used in scientific research. It is the oldest and most commonly used human cell line. The line was derived from cervical cancer cells taken on Feb. 8, 1951 from Henrietta Lacks, a patient who died of cancer on Oct. 4, 1951.
(§4) The effects of exemplary compounds on cancer cell lines and one non-tumorigenic cell line (control) were investigated using a high throughput screening assay. More specifically, the effects of the GS compounds on cell growth was evaluated by the XTT assay for cell lines HepG2, HeLa, MCF7 ER+, MDA-MB-231, and MKN-45, and by the Cell Glo luminescence assay for cell lines MIA PaCa-2, HCT-116, MCF-10A, and PANC-1.
A general note: Tetrazolium assays rely on reduction of a dye to a coloured formazan, in cell work by metabolically active cells.

In data set [2] the test system is MDA-MB-231 triple negative breast cancer cells. Description: XTT cell growth assay, MDA-MB-231. The format is cell-based, human. The settings on record: NS = not statistically significant; for inhibition at 50 µM: Homo sapiens, MDA-MB-231, 24 h, read-out: Effectiveness to suppress MDA-MB-231 cell growth (cell growth inhibition); for Effectiveness to suppress MDA-MB-231 cell growth (cell growth inhibition): 50 uM, 24 h.
Description: as §1, §2, §3
MDA-MB-231 is a human epithelial breast cancer cell line that was established from a pleural effusion of a person with a metastatic mammary adenocarcinomal and is one of the most commonly used breast cancer cell lines in medical research laboratories.
as §4

The subject of data set [3] is MCF-7 ER+ breast cancer cells. Description: XTT cell growth assay, MCF-7 ER+. The format is cell-based, human. To be noted: Homo sapiens, MCF7, 24 h, NS = not statistically significant, read-out: Effectiveness to suppress MCF7 cell growth (cell growth inhibition).
Description: as §1, §2, §3
MCF-7 ER+ is a human breast cancer cell line isolated in 1970 from a person. Prior to MCF-7, it was not possible for cancer researchers to obtain a mammary cell line that was capable of living longer than a few months.
as §4

Data set [4] deals with HCT-116 colon cancer cells. Description: Cell Glo luminescence cell growth assay, HCT-116. The format is cell-based, human. The settings on record: NS = not statistically significant; for Effectiveness to suppress HCT-116 cell growth (cell growth inhibition): 1 uM, 24 h; for inhibition at 1 µM: Homo sapiens, HCT-116, 24 h, read-out: Effectiveness to suppress HCT-116 cell growth (cell growth inhibition).
Description: (§5) The CellTiter-Glo® Luminescent Cell Viability Assay (Promega Corporation; Madison, WI) is a homogeneous method of determining the number of viable cells in culture based on quantitation of the ATP present, an indicator of metabolically active cells. The homogeneous assay procedure involves adding the single reagent (CellTiter-Glo® Reagent) directly to cells cultured in serum-supplemented medium. The homogeneous “add-mix-measure” format results in cell lysis and generation of a luminescent signal proportional to the amount of ATP present. The amount of ATP is directly proportional to the number of cells present in culture.
(§6) Cancer cells (3,000 cells/well) were harvested in a 96-well plate. Then, the cancer cells were treated with GS compounds and incubated for 24 hours. The MT Cell Viability Substrate, NanoLuc® Enzyme and cell culture medium was equilibrated to 37° C. The 2× RealTime-Glo™ reagent was prepared by diluting the MT Cell Viability Substrate and NanoLuc® Enzyme in 37° C. cell culture medium to a 2× concentration for each reagent. For example, 1 mL of 2× RealTime-Glo™ reagent was prepared by adding 2 μL of MT Cell Viability Substrate, 1,000×, and 2 μL of NanoLuc® Enzyme, 1,000×, to 996 μL of cell culture medium to form the 2× RealTime-Glo™ reagent. Then, an equal volume of 2× RealTime-Glo™ reagent was added to the cancer cells. The cells were kept for ˜20 minutes in the cell culture incubator and then luminescence was measured by using a plate-reading luminometer.
HCT-116 is a human colorectal cancer cell lines that has a mutation in RAS proto-oncogene.
as §4

Data set [5] concerns MIA PaCa-2 pancreatic cancer cells. Description: Cell Glo luminescence cell growth assay, MIA PaCa-2. The format is cell-based, human. To be noted: Homo sapiens, MIA PaCa-2, 24 h, NS = not statistically significant, read-out: Effectiveness to suppress MIA PaCa-2 cell growth (cell growth inhibition).
Description: as §5, §6
MIA PaCa-2 is a human pancreatic ductal adenocarcinoma cell line derived from the carcinoma of a person.
as §4

A short description of data set [6]: Deoxyribose degradation assay (hydroxyl radical scavenging). The class given is biochemical. The settings on record: NS = not statistically significant. How it is done: The hydroxyl radical (OH.) is an extremely reactive in biological systems and has been implicated as highly damaging species in free radical pathology, capable of damaging biomolecules of the living cells. These radical combines with nucleotides in DNA and cause strand breakage leading to carcinogenesis, mutagenesis and cytotoxicity. Hydroxyl radical (OH.) scavenging capacity of an extract is directly related to its antioxidant activity.
The effect of extracts on hydroxyl radicals was assayed by using the deoxyribose method. 2-Deoxyribose is degraded on exposure to hydroxyl radicals generated by Fenton's reaction. The ability to neutralize the OH. is estimated as the rate of inhibition of the oxidation of 2-deoxyribose by the OH. (FIG. 5).
The measurement of the hydroxyl radical scavenging activity was evaluated for each of the GS compound by evaluating the pink chromogen absorption at 532 nm by spectrophotometry as described previously (Perjesi, Pal et al., Open Med Chem J., 2011, 5: 61-67

The inhibition is how much of the control response was suppressed. With `C/C=C1/[C@H](OC2OC(CO)C(O)C(O)C2O)OC=C(C(=O)O)[C@H]1CC(=O)OCc1cc2ccccc2[nH]1` (stereo in doubt) [GS8, (2S,4S,E)-4-(2-((1H-indol-2-yl)methoxy)-2-oxoethyl)-3-ethylidene-2-{[(2R,3S,4R,5R,6S)-3,4,5-trihydroxy-6-(hydroxymethyl)tetrahydro-2H-pyran-2-yl]oxy}-3,4-dihydro-2H-pyran-5-carboxylic acid], the inhibition at 50 µM in data set [1] turned out to be 38.2%; in data set [2] it was 22.5%.
As for `C/C=C1/[C@H](OC2OC(CO)C(O)C(O)C2O)OC=C(C(=O)O)[C@H]1CC(=O)OCCCSC` (stereo in doubt) [GS9, (2S,4S,E)-3-ethylidene-4-(2-(3-(methylthio)propoxy)-2-oxoethyl)-2-{[(2R,3S,4R,5R,6S)-3,4,5-trihydroxy-6-(hydroxymethyl)tetrahydro-2H-pyran-2-yl]oxy}-3,4-dihydro-2H-pyran-5-carboxylic acid], the inhibition at 50 µM in data set [1] is 20%; in data set [3] it was 11.6%; in data set [2] it was 71.2%; in data set [5], 55%. Besides, the “Effectiveness to suppress MDA-MB-231 cell growth (cell growth inhibition)” value in data set [2] is given as “highest suppressive activity”. Besides, the “Effectiveness to suppress HCT-116 cell growth (cell growth inhibition)” value in data set [4] was “suppressive activity”. For the same compound, the inhibition at 1 µM in data set [4] was found to be 41.7%.
For the compound `C/C=C(/C=O)[C@@H](CC=O)CC(=O)OCC12CC3CC(CC(C3)C1)C2` [GS23, (3S,4E)-4-formyl-3-(2-oxoethyl)hex-4-enoic acid adamantan-1-ylmethyl ester], the inhibition at 50 µM in data set [1] was 25.2%; in data set [3], 64.7%; in data set [2], 42.7%; in data set [5], 15%. In addition, in data set [6], the “Deoxyribose Degradation Assay IC50” value was 17.6 μg extract/mL.
With `C/C=C1/[C@H](OC2OC(CO)C(O)C(O)C2O)OC=C(C(=O)O)[C@H]1CC(=O)OCC12CC3CC(CC(C3)C1)C2` (stereo in doubt) [GS3, (2S,4S,E)-4-(2-(adamantan-1-ylmethoxy)-2-oxoethyl)-3-ethylidene-2-{[(2R,3S,4R,5R,6S)-3,4,5-trihydroxy-6-(hydroxymethyl)tetrahydro-2H-pyran-2-yl]oxy}-3,4-dihydro-2H-pyran-5-carboxylic acid], the inhibition at 50 µM in data set [2] was determined as 64.7%.
Take `C/C=C1/[C@H](OC2OC(CO)C(O)C(O)C2O)OC=C(C(=O)O)[C@H]1CC(=O)O` (stereo in doubt) [GS2, (2S,4S,E)-4-(carboxymethyl)-3-Ethylidene-2-{[(2R,3S,4R,5R,6S)-3,4,5-trihydroxy-6-(hydroxymethyl)tetrahydro-2H-pyran-2-yl]oxy}-3,4-dihydro-2H-pyran-5-carboxylic acid]: the inhibition at 50 µM in data set [1] was 24.4%; in data set [2], 41.8%.
`C/C=C1/[C@H](OC2OC(CO)C(O)C(O)C2O)OC=C(C(=O)O)[C@H]1CC(=O)OCCC1CCCCC1` (stereo in doubt) [GS5, (2S,4S,E)-4-(2-(2-cyclohexylethoxy)-2-oxoethyl)-3-ethylidene-2-{[(2R,3S,4R,5R,6S)-3,4,5-trihydroxy-6-(hydroxymethyl)tetrahydro-2H-pyran-2-yl]oxy}-3,4-dihydro-2H-pyran-5-carboxylic acid]: in data set [2], the inhibition at 50 µM is 33.6%.
For `C/C=C1/[C@H](OC2OC(CO)C(O)C(O)C2O)OC=C(C(=O)O)[C@H]1CC(=O)SCCc1ccccc1` (stereo in doubt) [GS11, (2S,4S,E)-3-ethylidene-4-(2-oxo-2-(phenethylthio)ethyl)-2-{[(2R,3S,4R,5R,6S)-3,4,5-trihydroxy-6-(hydroxymethyl)tetrahydro-2H-pyran-2-yl]oxy}-3,4-dihydro-2H-pyran-5-carboxylic acid], the inhibition at 50 µM turned out to be 14.4% in data set [1], 57.8% in data set [3], 74.3% in data set [2] and 50% in data set [5]. Also, the “Effectiveness to suppress MDA-MB-231 cell growth (cell growth inhibition)” value in data set [2] is “highest suppressive activity”. Besides, the “Effectiveness to suppress HCT-116 cell growth (cell growth inhibition)” value in data set [4] was “suppressive activity”. The inhibition at 1 µM in data set [4] came to 32.9%.
For the compound `C/C=C1/[C@H](OC2OC(CO)C(O)C(O)C2O)OC=C(C(=O)O)[C@H]1CC(=O)OCCc1ccc(O)cc1` (stereo in doubt) [GS7, (2S,4S,E)-3-ethylidene-4-(2-(4-hydroxyphenethoxy)-2-oxoethyl)-2{[(2R,3 S,4R,5R,6S)-3,4,5-trihydroxy-6-(hydroxymethyl)tetrahydro-2H-pyran-2-yl]oxy}-3,4dihydro-2H-pyran-5-carboxylic acid], in data set [2], the inhibition at 50 µM was 32.7%.

Values taken from patent publication US12414960B2, “Analogues of oleuropein and oleacein and uses thereof” (Attica Sciences Ltd., priority 2020, dated 2025).
